From patent US9708270B2, “Substituted spiropiperidinyl compounds useful as GPR120 agonists” (Merck Sharp & Dohme Corp., priority 2012, dated 2017)

target: human GPR120 (Homo sapiens (Human), UniProt Q5NUL3); experiment: FLIPR assay: intracellular calcium in CHO cells expressing human GPR120; format: cell-based; conditions: FLIPR calcium assay, CHO cells expressing human GPR120, agonist action
Method: All compounds were tested under the FLIPR assay unless otherwise indicated.
Primers were synthesized in the domains on the opposite sides of the base sequences of the ORFs of the known GPCR and GPR120 in GenBank Accession NOs. […] The base sequences of the primers used are described below. The restriction enzymes, BamHI and EcoRI, recognition sites were introduced for subcloning, respectively.
As samples for PCR, human small intestine Marathon-ready cDNA (CLONTECH, current corporate name: TaKaRa) and cDMA obtained by reverse transcription of mouse BAT-derived RNA were used for human and mouse GPR120 receptor genes, respectively.
Using KOD Plus (TOYOBO) for PCR, 30 cycles of 94° C. for 2 minutes, 94° C. for 15 seconds, 55° C. for 30 seconds and 68° C. for 1 minute were carried out to effect reaction, followed by addition of 0.5 units of ExTaq (TaKaRa) and incubation at 72° C. for 10 minutes to carry out A-addition reaction to terminals. For mouse PCR, 35 cycles were carried out on the condition of a final DMSO concentration of 2%.
Cloning of amplified PCR products was carried out using pCR2.1-TOPO TA cloning kit (Invitrogen). For verification of base sequences, electrophoresis was carried out using BigDye Terminator Cycle Sequencing Ready Reaction Kit Ver.
The GPR120 receptor genes cloned into pCR2.1-TOPO vectors, into which the restriction enzymes, BamHI and EcoRI, recognition sites were introduced, were excised from the vectors by the enzymes and subcloned into the BamHI and EcoRI recognition sites of eukaryotic expression vector EF1/V5-His B (Invitrogen).
Test 2: Production of Expression Cells
Using Lipofectamine 2000 (Invitrogen), cDNA of GPR120 receptor was transfected into CHO/NFAT-BLA cells, and drug-resistant cells were isolated to obtain GPR120 stable expression strains. The GPR120-expressed CHO cells were cultured in DMEM/F12 medium containing 10% fetal bovine serum, 100 units/ml penicillin, 0.1 mg/ml streptomycin sulfate, 250 μg/ml Zeocin, 500 μg/mL Geneticin and 15 mM HEPES.
Test 3: Measurement of Intracellular Calcium Concentration
To the cells was added the test compound diluted with HBSS solution containing 20 mM HEPES and 2.5 mM probenecid. Variations in the intracellular calcium concentration were measured by Fluorescence Imaging Plate Reader (FLIPR; Molecular Devices) to examine the agonist action, and EC50 values were calculated. […]

human GPR120, sequence (Q5NUL3 whole entry): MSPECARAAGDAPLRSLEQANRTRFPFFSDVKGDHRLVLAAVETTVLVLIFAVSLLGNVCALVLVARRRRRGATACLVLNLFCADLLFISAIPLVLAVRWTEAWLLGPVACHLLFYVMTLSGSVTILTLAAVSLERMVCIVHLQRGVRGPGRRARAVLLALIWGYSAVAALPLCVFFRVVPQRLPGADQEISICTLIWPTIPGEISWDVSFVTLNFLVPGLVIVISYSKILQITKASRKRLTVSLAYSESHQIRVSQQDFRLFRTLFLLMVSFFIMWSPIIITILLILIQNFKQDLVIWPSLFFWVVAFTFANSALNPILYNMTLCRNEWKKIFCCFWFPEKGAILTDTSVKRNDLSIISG

SMILES	EC50
O=C(O)CC1CCC2(CC1)CCN(c1cc(OC3CCCC3)ccc1Cl)CC2 [Example 5, 2-(3-(2-chloro-5-(cyclopentyloxy)phenyl)-3-azaspiro[5.5]undecan-9-yl)acetic acid]	1.1 µM
COc1cc(F)c(N2CCC3(CCC(CC(=O)O)CC3)CC2)cc1F [Example 6]	2.42 µM
O=C(O)CC1CCC2(CC1)CCN(c1cc([N+](=O)[O-])ccc1Cl)CC2 [Example 10]	1.7 µM
CC1(C)Cc2cc(Cl)cc(N3CCC4(CCC(CC(=O)O)CC4)CC3)c2O1 [Example 11]	2.85 µM
O=C(O)CC1CCC2(CC1)CCN(c1cc(F)ccc1C(F)F)CC2 [Example 12]	2.42 µM
Cc1ccc(C#N)c(N2CCC3(CCC(CC(=O)O)CC3)CC2)c1 [Example 13]	2.14 µM
COc1ccc(Cl)cc1N1CCC2(CCC(CC(=O)O)CC2)CC1 [Example 14]	3.1 µM
N#Cc1ccc(F)cc1N1CCC2(CCC(CC(=O)O)CC2)CC1 [Example 17]	2.36 µM
Cc1cc(C)cc(N2CCC3(CCC(CC(=O)O)CC3)CC2)c1 [Example 19]	0.948 µM
CCC(=O)c1ccc(F)c(N2CCC3(CCC(CC(=O)O)CC3)CC2)c1 [Example 20]	1.66 µM
O=C(O)CC1CCC2(CC1)CCN(c1cc(C(F)(F)F)ccc1C(F)(F)F)CC2 [Example 21]	3.27 µM
O=C(O)CC1CCC2(CC1)CCN(c1cc(C(F)F)cc(C(F)F)c1)CC2 [Example 22]	3.01 µM
CC(C)(C)c1cc(N2CCC3(CCC(CC(=O)O)CC3)CC2)cc(C(F)(F)F)c1 [Example 23]	3.75 µM
CC(C)c1cc(C#N)cc(N2CCC3(CCC(CC(=O)O)CC3)CC2)c1 [Example 24]	3.46 µM
N#Cc1cc(SC(F)(F)F)cc(N2CCC3(CCC(CC(=O)O)CC3)CC2)c1 [Example 25]	1.15 µM
CSc1nc(N2CCC3(CCC(CC(=O)O)CC3)CC2)cc(C(F)(F)F)n1 [Example 26]	8.3 µM
O=C(O)CC1CCC2(CC1)CCN(c1cc(C(F)F)cc(C(F)F)n1)CC2 [Example 27]	2.99 µM

SMILES	EC50
Cc1cc(F)cc(N2CCC3(CCC(CC(=O)O)CC3)CC2)c1 [Example 28]	3.04 µM
O=C(O)CC1CCC2(CC1)CCN(c1cc(F)cc(Cl)c1)CC2 [Example 29]	1.79 µM
O=C(O)CC1CCC2(CC1)CCN(c1cc(Cl)cc(Cl)c1)CC2 [Example 30]	0.878 µM
O=C(O)CC1CCC2(CC1)CCN(c1cc(F)cc(C(F)(F)F)c1)CC2 [Example 31]	1.22 µM
O=C(O)CC1CCC2(CC1)CCN(c1cc(C(F)(F)F)cc(C(F)(F)F)c1)CC2 [Example 32]	2.15 µM
O=C(O)CC1CCC2(CC1)CCN(c1cc(C(F)(F)F)ccn1)CC2 [Example 33]	3.06 µM
Cc1cc(N2CCC3(CCC(CC(=O)O)CC3)CC2)cc(C(F)(F)F)c1 [Example 34]	0.671 µM
O=C(O)CC1CCC2(CC1)CCN(c1cc(Cl)cc(C(F)(F)F)c1)CC2 [Example 36]	0.832 µM
Cc1cc(F)c(Cl)c(N2CCC3(CCC(CC(=O)O)CC3)CC2)c1 [Example 37]	2.17 µM
O=C(O)CC1CCC2(CC1)CCN(c1cc(F)cc(Cl)c1F)CC2 [Example 38]	2.15 µM
O=C(O)CC1CCC2(CC1)CCN(c1cc(Cl)cc(F)c1F)CC2 [Example 39]	1.8 µM
Cc1cc(Cl)cc(N2CCC3(CCC(CC(=O)O)CC3)CC2)c1C#N [Example 40]	2.54 µM
Cc1cc(C)c(Cl)c(N2CCC3(CCC(CC(=O)O)CC3)CC2)c1 [Example 43]	2.52 µM
CCc1cc(CC)cc(N2CCC3(CCC(CC(=O)O)CC3)CC2)c1 [Example 44]	2.58 µM
Cc1cc(Cl)cc(N2CCC3(CCC(CC(=O)O)CC3)CC2)c1 [Example 45]	1.17 µM
CCc1cc(C)cc(N2CCC3(CCC(CC(=O)O)CC3)CC2)c1 [Example 46]	1.29 µM

Further lines, results first:

EC50	SMILES
2.63 µM	FC(F)(F)Oc1ccc(Cl)c(N2CCC3(CCC(Cc4nn[nH]n4)CO3)CC2)c1 (racemic) [Example 92, 3-((2H-tetrazol-5-yl)methyl)-9-(2-chloro-5-(trifluoromethoxy)phenyl)-1-oxa-9-azaspiro[5.5]undecane]
1.48 µM	O=C(O)CC1COC2(CCN(c3cc(OC(F)(F)F)ccc3F)CC2)C1 (racemic) [Example 94, 2-(8-(2-fluoro-5-(trifluoromethoxy)phenyl)-1-oxa-8-azaspiro[4.5]decan-3-yl)acetic acid]
2.76 µM	CC1CC(CC(=O)O)CCC12CCN(c1cc(OC(F)(F)F)ccc1Cl)CC2 (single isomer, unassigned) [Example 89a, 2-(3-(2-Chloro-5-(trifluoromethoxy)phenyl)-7-methyl-3-azaspiro[5.5]undecan-9-yl)acetic acid]
3.13 µM	CC1CC(CC(=O)O)CCC12CCN(c1cc(OC(F)(F)F)ccc1Cl)CC2 (single isomer, unassigned) [Example 89b, 2-(3-(2-Chloro-5-(trifluoromethoxy)phenyl)-7-methyl-3-azaspiro[5.5]undecan-9-yl)acetic acid]
2.49 µM	CC1CC(CC(=O)O)CCC12CCN(c1cc(OC(F)(F)F)ccc1Cl)CC2 (single isomer, unassigned) [Example 89c, 2-(3-(2-Chloro-5-(trifluoromethoxy)phenyl)-7-methyl-3-azaspiro[5.5]undecan-9-yl)acetic acid]
0.636 µM	O=C(O)CC1CCC2(CCN(c3cc(OC(F)(F)F)ccc3Cl)CC2)OC1 (single isomer, unassigned) [Example 91A, (S)-2-(9-(2-chloro-5-(trifluoromethoxy)phenyl)-1-oxa-9-azaspiro[5.5]undecan-3-yl)acetic acid or (R)-2-(9-(2-chloro-5-(trifluoromethoxy)phenyl)-1-oxa-9-azaspiro[5.5]undecan-3-yl)acetic acid]
1.02 µM	O=C(O)CC1CCC2(CCN(c3cc(OC(F)(F)F)ccc3Cl)CC2)OC1 (single isomer, unassigned) [Example 91B, (S)-2-(9-(2-chloro-5-(trifluoromethoxy)phenyl)-1-oxa-9-azaspiro[5.5]undecan-3-yl)acetic acid or (R)-2-(9-(2-chloro-5-(trifluoromethoxy)phenyl)-1-oxa-9-azaspiro[5.5]undecan-3-yl)acetic acid]
1.3 µM	O=C(O)C[C@@H]1CCC2(CCN(c3cc(OC(F)(F)F)ccc3F)CC2)OC1 (single isomer, unassigned) [Example 93a, (R) or (S) 2-(9-(2-fluoro-5-(trifluoromethoxy)phenyl)-1-oxa-9-azaspiro[5.5]undecan-3-yl)acetic acid]
0.75 µM	O=C(O)C[C@@H]1CCC2(CCN(c3cc(OC(F)(F)F)ccc3F)CC2)OC1 (single isomer, unassigned) [Example 93b, (R) or (S) 2-(9-(2-fluoro-5-(trifluoromethoxy)phenyl)-1-oxa-9-azaspiro[5.5]undecan-3-yl)acetic acid]
0.9 µM	O=C(O)CC1CCC2(CC1)CCN(c1cc(C(F)(F)F)ccc1Cl)CC2 [Example 2, 2-(3-(2-chloro-5-(trifluoromethyl)phenyl)-3-azaspiro[5.5]undecan-9-y)acetic acid]
3.4 µM	CC(C(=O)O)C1CCC2(CC1)CCN(c1cc(OC(F)(F)F)ccc1Cl)CC2 (centres unmarked) [Example 3, 2-(3-(2-chloro-5-(trifluoromethoxy)phenyl)-3-azaspiro[5.5]undecan-9-yl)propanoic acid]
0.41 µM	O=C(O)CC1CCC2(CC1)CCN(c1cc(OC(F)(F)F)ccc1F)CC2 [Example 7]
1.67 µM	COc1ccc(Cl)c(N2CCC3(CCC(CC(=O)O)CC3)CC2)c1 [Example 8]
2.18 µM	Cc1ccc(Cl)c(N2CCC3(CCC(CC(=O)O)CC3)CC2)c1 [Example 9]
2.35 µM	COc1ccc(C(F)(F)F)cc1N1CCC2(CCC(CC(=O)O)CC2)CC1 [Example 15]
0.652 µM	O=C(O)CC1CCC2(CC1)CCN(c1cc(C(F)(F)F)ccc1F)CC2 [Example 16]
0.53 µM	CC(C)Oc1ccc(Cl)c(N2CCC3(CCC(CC(=O)O)CC3)CC2)c1 [Example 18]
0.431 µM	N#Cc1ccc(OC(F)(F)F)cc1N1CCC2(CCC(CC(=O)O)CC2)CC1 [Example 35]
1.69 µM	CSc1ccc(OC(F)(F)F)cc1N1CCC2(CCC(CC(=O)O)CC2)CC1 [Example 41]
0.749 µM	Cc1ccc(C(F)(F)F)cc1N1CCC2(CCC(CC(=O)O)CC2)CC1 [Example 42]
0.33 µM	O=C(O)CC1CCC2(CC1)CCN(c1cc(OC3CCC3)ccc1Cl)CC2 [Example 47]
0.377 µM	Cc1cc(OC(F)(F)F)cc(N2CCC3(CCC(CC(=O)O)CC3)CC2)c1 [Example 48]

same assay, conditions: at 8300 nM; 100% activation defined by reference compound of U.S. Pat. No. 8,367,708

Human GPR120 % activation	SMILES
62%	CSc1nc(N2CCC3(CCC(CC(=O)O)CC3)CC2)cc(C(F)(F)F)n1 [Example 26]
